Reference: a melting point compilation (Tetko et al.; mined from patent text by program, amines drawn as free bases though some values may be those of a salt)

| melting point [°C] | SMILES |
| --- | --- |
| 133 | CO[C@@H]1C[C@H](C(=O)Nc2ccc(N3CCOCC3=O)cc2)N(C(=O)Nc2ccc(Cl)cc2)C1 |
| 109 to 111 | O=C(Nc1ccccc1CS(=O)c1nccn1-c1ccccn1)c1ccccc1 (stereo unspecified) |
| 163 to 164 | Cc1noc(-c2sc(N3CCN(Cc4ccc(C(F)(F)F)cc4)C3=O)nc2C)n1 |
| 137 to 139 | COc1cc(N(C(C)=O)C2CCCCC2)c2ccccc2c1OC(C)=O |
| 170 to 176 | COc1c(C)c2c(c(NS(C)(=O)=O)c1C/C=C(\C)CCC(=O)O)C(=O)OC2 |
| 189 to 193 | O=C(O)C1Cc2ccsc2S1(=O)=O (stereo unspecified) |
| 249 to 250 | Cc1cccc(Nc2nc(-n3nc(C)cc3C)nc3ccccc23)c1 |
| 191 to 192 | COc1nc(N)c2ncn(C3OC(CO)C(O)C3O)c2n1 (stereo unspecified) |
| 182 | CCCOC(=O)C1=C(N)NC(C)=C(C(=O)OCC)C1c1ccccc1C#N (stereo unspecified) |
| 125 to 128 | CC(=O)NC(Oc1ccccc1)C(=O)NCc1ccccc1 (stereo unspecified) |
| 145 to 147 | O=C(Nc1nc(Cl)nc(Cl)n1)NS(=O)(=O)c1cccc2cccnc12 |
| 284 to 287 | Cc1c(Cl)c2c(c3oc4ccccc4c(=O)c13)CC(C(=O)O)O2 (stereo unspecified) |
| 105 to 107 | CCCOCCOc1ccc(-c2ccc3c(c2)C=C(C(=O)OC)CCS3(=O)=O)cc1 |
| 154 to 155 | CCc1cc2c(Cl)cc(F)c(-n3c(=O)cc(C(F)(F)F)[nH]c3=O)c2o1 |
| 113 to 114 | CC(=O)NC12CC3CC(C)(CC(C)(C3)C1)C2 |
| 129 to 130 | CCOC(=O)c1cnn2c(-c3ccccc3)ccnc12 |
| 82 | CCOC(=O)CC(=O)Nc1ccc(Cl)cc1 |
| 90 | CCCc1cccc(C2CCCC2)c1 |
| 155 | CS(=O)(=O)c1c(O)c2cccnc2n(Cc2ccccc2)c1=O |
| 78 to 79 | CCCCCCCCCCCCCCCCc1nc(N(C)C)nc(OC)c1O |
| 164 to 166 | CC(OC(=O)C12CC3CC(CC(C3)C1)C2)c1ccncc1 (single isomer, unassigned; (-)) |
| 73 to 74.5 | CC(=O)OCCn1c2ccccc2c2ccccc21 |
| 142 | O=[N+]([O-])c1ccc(OC2CCN(c3ccncc3)CC2)cc1 |
| 117 to 119 | CCN(CC)CC1CCCCN1CCNC(=O)N1c2ccc(Br)cc2C(=O)Nc2cccnc21 (stereo unspecified) |

| melting point [°C] | SMILES |
| --- | --- |
| 160 | O=c1c(-c2nc[nH]n2)coc2ccccc12 |
| 246 to 247 | Cc1nnc(-c2ccc3ncn(-c4ccc(S(C)=O)cc4)c3c2)o1 (stereo unspecified) |
| 195 to 196 | O=C(O)[C@@]1(c2ccc3ccccc3c2)CC1(c1ccccc1)c1ccccc1 |
| 152 | Cc1cc(O)nc(Br)c1 |
| 242 to 244 | CNc1nc(-c2cccc(C(=O)Nc3ccccc3)c2)c2cc(OC)c(OC)cc2n1 |
| 257 to 260 | O=c1c2c([nH]n1-c1ccc(Br)cc1)-c1cc(Cl)ccc1SC2 |
| 146 to 148 | Cc1c[nH]c2c(CCC#N)cccc12 |
| 177 to 178 | CC(=O)NC[C@H]1CN(c2ccc3c(c2)CCS(=O)(=O)C3)C(=O)O1 |
| 67.3 to 68.4 | COc1cc(C(=O)CC(=O)C(C)(C)C)cc(OC)c1OC |
| 141 to 142 | CC(C)c1nn(-c2ccc(C(F)(F)F)cn2)cc1COc1cc(CCC(=O)O)n(C)n1 |
| 81.2 | CCCC[N+]([O-])=Cc1ccc(OCc2ccccc2)c(OC)c1 |
| 154 to 155 | CSc1nc2ccc(Cl)cc2cc1C=O |
| 138 to 139 | O=C1c2ccccc2C(=O)N1Cc1ccc(I)cc1 |
| 237 to 239 | Nc1nc(N)nc(N2CCSCC2)n1 |
| 183 to 184 | CC(=O)Nc1c(C(=O)c2cccc(Br)c2)[nH]c2cc(Cl)ccc12 |
| 318 to 320 | O=C(O)c1ccc(CCc2n[nH]c3c2c(=O)n(-c2ccccc2)c2ncccc32)cc1 |
| 112 | CCN(CC)c1nc(NC(N)=NOC)nc(OC)n1 |
| 192 to 193 | CCCCOc1nc(N)c2[nH]c(=O)n(CCCCN(CCN3CCCC3)S(=O)(=O)c3cccc(CC(=O)O)c3)c2n1 |
| 146 to 149 | CC[C@H](C)[C@H](N)C(=O)N[C@@H](Cc1ccc(OC(C)(C)C)cc1)C(=O)N[C@@H](C)C(=O)NCc1c(OC)ccc2c1Oc1c(ccc(OC)c1CC(=O)O)C2(C)C |
| 236 to 238 | O=C1CCC(N2C(=O)c3cccc(OCc4ccc(CN5CCC(c6ccc(Cl)cc6)CC5)cc4)c3C2=O)C(=O)N1 (stereo unspecified) |
| 210 to 211 | C=CCNc1nc(Cl)nc(N(CCCCCCN(c2nc(Cl)nc(NCC=C)n2)C2CC(C)(C)NC(C)(C)C2)C2CC(C)(C)NC(C)(C)C2)n1 |
| 60 to 63 | O=C(O)CN1CCC[C@H](OCc2cc(C(F)(F)F)cc(C(F)(F)F)c2)[C@@H]1c1ccccc1 |
| 120 to 121 | CCOC(=O)c1c(Cl)nc2ccc(Br)cc2c1Cl |
| 60 to 62 | CCOC(=O)c1cc(OC)c(C)cc1N |

| melting point [°C] | SMILES |
| --- | --- |
| 114 to 118 | CC[C@H](C)[C@H](O)C(=O)N1CCC(Oc2cc3ncnc(Nc4cccc(Cl)c4F)c3cc2OC)CC1 |
| 174 to 175 | COCCOc1cc(N(C)S(=O)(=O)c2nccn2C)c2[nH]c(C(=O)O)cc2c1 |
| 35 to 37 | CCOCCOc1ccc(OCc2ccccc2)cc1 |
| 160 to 161 | O=S(=O)(Nc1nccnc1OCc1ccc(CO)cc1)c1cccc(Cl)c1Cl |
| 204 | NS(=O)(=O)c1cccc(-c2cn(-c3nc(-c4cccc(Cl)c4)cc(C(F)(F)F)n3)cn2)c1 |
| 198 to 200 | O=C(Nc1nc(Cl)cc(Cl)n1)NS(=O)(=O)c1cccc2cccnc12 |
| 370 to 380 | Cn1c(=O)c(=O)[nH]c2cc([N+](=O)[O-])c([N+](=O)[O-])cc21 |
| 104 | CCOP(=O)(Cc1c2ccccc2cc2ccccc12)OCC |
| 89 | COc1ccc(C(=O)c2c(Cl)cccc2Cl)c(C)c1 |
| 219 to 221 | COc1cnc(-c2cccn3nc(C4(C5CCNCC5)C=CC(N)=CC4)nc23)cn1 (stereo unspecified) |
| 126 | COc1ccc(N2CCN(c3ccccn3)CC2)cc1 |
| 230 | CCOC(=O)c1cn(C2CC2)c2nc3cc(F)c(F)cc3cc2c1=O |
| 168 to 186 | CCCCNS(=O)(=O)CC(O)C(O)C(CC1CCCCC1)NC(=O)c1ccncc1 (stereo unspecified) |
| 134 | CCOC(=O)C=Cc1ccc(N2CCCC2=O)cc1 |
| 155 to 157 | CCON=C(CC)C1=C(O)CC(c2ccc(Oc3ccc(S(C)(=O)=O)cc3)cc2)CC1=O (stereo unspecified) |
| 50 | Oc1nsc(Cc2ccccc2)n1 |
| 112 to 113 | Cn1nnnc1SCC(=O)C12CC3CC(CC(C3)C1)C2 |
| 85 to 105 | CCCCN1CCC(N(Cc2ccc(Nc3ccnc4ccccc34)cc2)C(C)=O)CC1 |
| 63 | COC1=C(OC)C(=O)C(CCCCCCCCCCCCO)=C(C)C1=O |
| 192 to 195 | Fc1ccc(Nc2ncnc3cnc(NC4CCC(N5CCCC5)CC4)nc23)cc1Cl (stereo unspecified) |
| 104 to 107 | CNC(Cc1ccccc1)C(=O)N[C@@H](Cc1cccc2ccccc12)C(=O)O (stereo partly specified) |
| 154 | CCn1nc(-c2ccc(F)cc2)c(C(C)=O)c(Nc2cccc3cccnc23)c1=O |
| 164 to 167 | CC1=CC(c2ccc(F)c(Cl)c2)C2=C(CCCC2=O)N1 (stereo unspecified) |
